Test results: ChEMBL document CHEMBL1147228, “Dammarane-type triterpenes from the Brazilian medicinal plant Cordia multispicata” (J Nat Prod, 2003)

Experiment: Antiandrogenic activity assessed as inhibition of testosterone 5alpha reductase at 100 ug/mL
Design: scale not given: the % may be the effect or the level left
`COC(C)(C)C(O)C(O)/C=C(\C)[C@H]1CC[C@]2(C)[C@@H]1C[C@@H](O)[C@@H]1[C@]34CC[C@](O)(OC3)C(C)(C)[C@@H]4CC[C@]12C` (stereo not given in full) showed an Activity of 19%. Compound `C=C(C)C(O)C(O)/C=C(\C)[C@H]1CC[C@]2(C)[C@@H]1C[C@@H](O)[C@@H]1[C@]34CC[C@](O)(OC3)C(C)(C)[C@@H]4CC[C@]12C` (stereo not given in full) has an Activity of 18%. `C/C(=C\C(O)C(O)C(C)(C)O)[C@H]1CC[C@]2(C)[C@@H]1C[C@@H](O)[C@@H]1[C@]34CC[C@](O)(OC3)C(C)(C)[C@@H]4CC[C@]12C` (stereo not given in full) gave an Activity of -2.09%. Work on `C/C(=C\C(O)C1OC1(C)C)[C@H]1CC[C@]2(C)[C@@H]1C[C@@H](O)[C@@H]1[C@]34CC[C@](O)(OC3)C(C)(C)[C@@H]4CC[C@]12C` (stereo not given in full) yielded an Activity of 15.1%. In the case of `C/C(=C\C(O)C1OC1(C)C)[C@H]1CC[C@]2(C)[C@@H]1C[C@@H](O)[C@@H]1[C@@]3(C)CCC(=O)C(C)(C)[C@@H]3CC[C@]12C` (stereo not given in full), the Activity is reported as 43.1%.
